{"source": "patent US20140031787A1", "about": "“FEEDBACK-BASED DIURETIC OR NATRIURETIC MOLECULE ADMINISTRATION” (Medtronic, Inc., priority 2012, published 2014)", "key": {"Dahl/SS rats": {"system": "Dahl/SS rats", "assay": "Pharmacodynamic study of VD by SQ infusion in Dahl/SS rats on 4% salt diet", "conditions": "for blood pressure compared with 4% vehicle control group at week 3: week 3, p-value<0.05", "experimental": "The pharmacodynamic effects of VD were investigated in a rat model. Forty male Dahl/SS rats were shipped to the animal facilities at PhysioGenix, Inc. (Milwaukee, Wis.). The rats were maintained on a low-salt diet and allowed to acclimate. After acclimation, animals had baseline parameters collected while on the low-salt diet. Baseline tail-cuff blood pressures and echocardiograms were measured. Baseline urine was collected for analysis of protein and albumin. Animals were then randomly assigned to one of 4 groups (10 animals per group):\n1. Vehicle Control; low-salt diet, n=10 2. Vehicle Control; 4% salt diet, n=10 3. Vessel dilator, 100 ng/kg/min, 4% salt diet, n=10 4. Vessel dilator, 300 ng/kg/min, 4% salt diet, n=10\nThe vehicle control groups were infused with a citrate-mannitol-saline buffer (0.66 mg/mL citric acid, 6.43 mg/mL sodium citrate, 40 mg/mL mannitol, 9 mg/mL NaCl). The animals were on a Teklad 7034 (low-salt) diet or Dyets AIN-76A 4% salt diet, as indicated, throughout a 6 week course of the study and had free access to water.\nAlzet® minipumps (Durect, Corp.) were surgically implanted on Days 1, 15, and 29 of the study to maintain continuous vehicle or drug dispensing at the desired dose for a total period of 6 weeks. Urine was collected at baseline, 2, 4 and 6 weeks after the initiation of the treatment to assess proteinuria and albuminuria. After six weeks of treatment, the animals were then euthanized."}, "[1]": {"system": "canine model high-rate paced (HRP)", "assay": "Pharmacodynamic study of VD by subcutaneous infusion in high-rate paced canine heart failure model", "text": "The pharmacodynamic effects of VD delivered by subcutaneous infusion were investigated in a canine model high-rate paced (HRP) to a heart rate of 240 bpm (ventricular pacing) over a period of 10 days to simulate HF. The canines were divided into a control group and an experimental group. The control group received a continuous subcutaneous infusion of the Tris buffer without VD over the course of the 10 day period. The experimental group received continuous subcutaneous infusion of VD dissolved in Tris buffer at a dosing rate of 100 ng/kg·min based upon the body weight of individual canines.\nSeven days prior to the beginning of HRP (Day −7), all dogs were instrumented for ventricular pacing with an IPG (implantable pulse generator) including an RA (right atrium) and RV (right ventricle) lead, and a DSI (Digital Sciences International) device in the femoral artery for arterial blood pressure monitoring. Glomerular filtration rate (GFR) was measured by iohexol clearance on the day before the beginning of HRP (Day −1). On Day 0, high-rate pacing was initiated at a rate of 240 BPM (beats per minute) and maintained continuously over the course of a 10 day period (Days 0-10). After HRP was started on Day 0, urine, blood, and hemodynamic data was collected from conscious animals to serve as a baseline.\nOn Days 0-10, in combination with pacing, each animal received continuous subcutaneous (SQ) infusion of an agent (Tris buffer solution for control animals and vessel dilator in Tris buffer for experimental animals) delivered via external catheter and pump. SQ infusion was performed using Medtronic MiniMed® 407C pumps equipped with 3.0 mL reservoirs (#MMT-103A) and Medtronic Silhouette® combo infusion sets (#MMT373). GFR measurements were repeated on Day 9. On Day 10 (with HRP On), a pre-term monitor was performed for urine and hemodynamic data collection on conscious animals. Once the data was collected, HRP was turned off and the animals were euthanized."}, "male dog": {"system": "male dog", "assay": "NICOM study: cardiac data in anesthetized, mechanically ventilated dog", "assay_type": "in vivo", "conditions": "phenylephrine followed by SNP; for cardiac output (CO): dobutamine incremental infusion doses, esmolol after dobutamine", "description": "In one embodiment, the monitor comprises two electrodes (2601, 2602) which carry out two roles simultaneously. The first role is to deliver a continuous low-voltage alternating electrical current. The second role is to sample at a very fast rate the signal emanating from a patient. The signals are then analyzed to determine stroke volume (SV), heart rate (HR), cardiac output (CO), stroke volume variation (SVV) and other hemodynamic information. In one embodiment, the two electrodes 2601 and 2602 are placed on the surface of the chest of a human being 2604 to collect cardiac data. Although a human being 2604 is depicted, one of ordinary skill will understand that any mammal can be the subject. Further, one of ordinary skill in the art will appreciate that the two electrodes 2601 and 2602 may be placed on different locations of the body of the subject to obtain data.\nA noninvasive cardiac output monitoring (NICOM) monitor was utilized to measure cardiac data from an anesthetized, mechanically ventilated, 54 lb, 42 inch (nose to base of tail) male dog. FIGS. 23-27 depict the cardiac data measured by the NICOM monitor.\nThe gap in data at 11:20 indicates electrocautery interference when the chest of the dog was opened. FIG. 24 depicts the data in response to sequential fluid boluses. An approximate 20% increase in CO was detected reflecting changes in both SV and HR. […] FIG. 26 depicts the cardiodepressant effect of the ultra-short beta-blocker esmolol given after dobutamine and recalibration. […] FIG. 27 depicts the response to increasing blood pressure with phenylephrine followed by decreasing blood pressure with sodium nitroprusside (SNP). Prior to this intervention, the dog chest had been opened and commercially available flow monitors had been implanted on the pulmonary artery (PA). Baseline PA flow data, which was measured by the implantable monitors, was 2.7 L/min. The PA flow data measured by the NICOM monitor was 2.812 L/min."}}}
{"compound": "vessel dilator (EVVPPQVLSEPNEEAGAALSPLPEVPPWTGEVSPAQR; Vessel dilator; UniProt P01160 56-92, looked up) [VD]", "values": [{"measurement": "average blood pressure compared with vehicle control group on 4% salt diet", "setting": "Dahl/SS rats; high-dose VD 300 ng/kg/min SQ infusion", "result": "attenuated blood pressure"}, {"measurement": "blood pressure compared with 4% vehicle control group at week 3", "setting": "Dahl/SS rats; high-dose VD 300 ng/kg/min", "result": "statistically significant decrease"}, {"measurement": "decrease in blood pressure compared with 4% vehicle control group at week 5", "setting": "Dahl/SS rats; high-dose VD 300 ng/kg/min", "result": "not as statistically significant"}, {"measurement": "average blood pressure compared with vehicle control group on 4% salt diet", "setting": "Dahl/SS rats; low-dose VD 100 ng/kg/min SQ infusion", "result": "attenuated blood pressure"}, {"measurement": "blood pressure compared with 4% vehicle control group at week 3", "setting": "Dahl/SS rats; low-dose VD 100 ng/kg/min", "result": "statistically significant decrease"}, {"measurement": "decrease in blood pressure compared with 4% vehicle control group at week 5", "setting": "Dahl/SS rats; low-dose VD 100 ng/kg/min", "result": "not as statistically significant"}, {"measurement": "difference in pulmonary capillary wedge pressure between control and experimental group on Day 10", "setting": "[1]; VD 100 ng/kg·min SQ infusion, two-way repeated measures ANOVA", "result": "does not appear to be statistically significant"}, {"measurement": "extent of increase in pulmonary capillary wedge pressure Day 0 to Day 10 compared with control group", "setting": "[1]; VD 100 ng/kg·min continuous SQ infusion", "result": "smaller than that observed in the control group"}, {"measurement": "increase in right atrial pressure compared with control group", "setting": "[1]; VD 100 ng/kg·min continuous SQ infusion, Day 10, p-value<0.05", "result": "significantly less than for the control group"}, {"measurement": "mean right atrial pressure, change from Day 0 to Day 10", "setting": "[1]; VD 100 ng/kg·min continuous SQ infusion, HRP 240 bpm for 10 days", "result": "increased slightly"}]}
{"compound": "CNC[C@H](O)c1cccc(O)c1", "note": "[phenylephrine]", "values": [{"measurement": "cardiac output (CO)", "setting": "male dog; NICOM monitor", "result": "reduced"}, {"measurement": "heart rate (HR)", "setting": "male dog; NICOM monitor", "result": "reflex slowing"}, {"measurement": "blood pressure", "setting": "male dog", "result": "elevated"}]}
{"compound": "CC(CCc1ccc(O)cc1)NCCc1ccc(O)c(O)c1", "note": "(stereo not drawn) [dobutamine]", "values": [{"measurement": "cardiac output (CO)", "setting": "male dog; NICOM monitor", "result": "marked increase"}]}
{"compound": "COC(=O)CCc1ccc(OCC(O)CNC(C)C)cc1", "note": "(stereo not drawn) [esmolol]", "values": [{"measurement": "cardiac output (CO)", "setting": "male dog; NICOM monitor", "result": "marked decline"}]}
